Reference: PubChem BioAssay AID204 (DTP/NCI, 2004)
“And” between values parts separate entries of the source, which are not always exact repeats. Equal values may be shown once. Toxic doses and inconclusive results are not listed. Starred links: 1 amine or outer side, 2 acyl side, 3 side chain; linkers in the order of their positions; H or OH if unused. Positions of bridges follow the written chain, without caps; N, C: chain ends. Non-standard residues stand in square brackets, D forms with d. Residues, ends and D or L forms follow the SMILES beside them. Chains are numbered I, II in the order given. Actinocin(9to1) = Cc1c2oc3c(C)ccc(C(=O)[*:1])c3nc-2c(C(=O)[*:2])c(N)c1=O; aThr = C[C@H](O)[C@H](N)C(=O)O; NMeV = CN[C@H](C(=O)O)C(C)C; Sar = CNCC(=O)O

Test system: BDF1 mice, P288 methotrexate-resistant leukemia, survival T/C
Assay: NCI In Vivo Anticancer Drug Screen. Data for tumor model P288 Lymphocytic Leukemia resistant to methotrexate; NSC 740 (intraperitoneal) in B6D2F1 (BDF1) mice
Details: endpoint: median survival time, higher = longer survival
Experimental: The antitumor activity of compounds was measured in mice bearing transplantable tumors. Survival or tumor size were measured and the results are expressed as the measurement made in the treated group (T) divided by the measurement made in the vehicle treated control group (C). The tumor model used in this assay is P288 Lymphocytic Leukemia resistant to methotrexate; NSC 740 (intraperitoneal) in B6D2F1 (BDF1) mice

[1] = dose: 200.0 mg/kg/injection, schedule: Q01DX010 (ip), vehicle: saline
[2] = dose: 25.0 mg/kg/injection, schedule: Q01DX010 (ip), vehicle: saline
[3] = dose: 50.0 mg/kg/injection, schedule: Q01DX010 (ip), vehicle: saline
[4] = dose: 100.0 mg/kg/injection, schedule: Q01DX010 (ip), vehicle: saline
[5] = dose: 10.0 mg/kg/injection, schedule: Q01DX010 (ip), vehicle: saline
[6] = dose: 20.0 mg/kg/injection, schedule: Q01DX010 (ip), vehicle: saline
[7] = dose: 40.0 mg/kg/injection, schedule: Q01DX010 (ip), vehicle: saline
[8] = dose: 5.0 mg/kg/injection, schedule: Q01DX010 (ip), vehicle: saline
[9] = dose: 0.25 mg/kg/injection, schedule: Q01DX010 (ip), vehicle: saline
[10] = dose: 1.0 mg/kg/injection, schedule: Q01DX010 (ip), vehicle: saline
[11] = dose: 0.5 mg/kg/injection, schedule: Q01DX010 (ip), vehicle: saline
[12] = dose: 3.13 mg/kg/injection, schedule: Q01DX010 (ip), vehicle: saline
[13] = dose: 6.25 mg/kg/injection, schedule: Q01DX010 (ip), vehicle: saline
[14] = dose: 15.6 mg/kg/injection, schedule: Q01DX010 (ip), vehicle: saline
[15] = dose: 31.3 mg/kg/injection, schedule: Q01DX010 (ip), vehicle: saline
[16] = dose: 62.5 mg/kg/injection, schedule: Q01DX010 (ip), vehicle: saline
[17] = dose: 1.25 mg/kg/injection, schedule: Q01DX010 (ip), vehicle: saline
[18] = dose: 125.0 mg/kg/injection, schedule: Q01DX010 (ip), vehicle: saline

O=c1cnn(C2OC(CO)C(O)C2O)c(=O)[nH]1 (stereo not given)
T/C [1]: 100 % of control | T/C (dose: 400.0 mg/kg/injection, schedule: Q01DX010 (ip), vehicle: saline): 100 % of control | T/C (dose: 800.0 mg/kg/injection, schedule: Q01DX010 (ip), vehicle: saline): 91 % of control

CN(C)c1ccc(/C=C\c2ccnc3ccccc23)cc1
T/C (dose: 1.5 mg/kg/injection, schedule: Q01DX010 (ip), vehicle: saline): 100 % of control | T/C (dose: 3.0 mg/kg/injection, schedule: Q01DX010 (ip), vehicle: saline): 100 % of control | T/C (dose: 6.0 mg/kg/injection, schedule: Q01DX010 (ip), vehicle: saline): 100 % of control | T/C (dose: 12.0 mg/kg/injection, schedule: Q01DX010 (ip), vehicle: saline): 105 % of control

CN(C)/N=N/c1nc[nH]c1C(N)=O
T/C [2]: 100 % of control | T/C [3]: 90 % of control | T/C [4]: 105 % of control and 109 % of control | T/C [1]: 90 % of control and 100 % of control

CN(C)CC(=O)c1ccc(O)c(O)c1
T/C [1]: 110 % of control and 113 % of control | T/C (dose: 300.0 mg/kg/injection, schedule: Q01DX010 (ip), vehicle: saline): 120 % of control and 122 % of control | T/C (dose: 450.0 mg/kg/injection, schedule: Q01DX010 (ip), vehicle: saline): 115 % of control and 118 % of control | T/C (dose: 675.0 mg/kg/injection, schedule: Q01DX010 (ip), vehicle: saline): 122 % of control

CN(N=O)C(N)=O
T/C [5]: 110 % of control | T/C [6]: 150 % of control | T/C [7]: 95 % of control

Clc1ccc(C(c2ccccc2Cl)C(Cl)Cl)cc1 (stereo not given)
T/C (dose: 62.5 mg/kg/injection, schedule: Q01DX010 (sc), vehicle: steriod suspending solution): 109 % of control | T/C (dose: 125.0 mg/kg/injection, schedule: Q01DX010 (sc), vehicle: steriod suspending solution): 100 % of control | T/C (dose: 250.0 mg/kg/injection, schedule: Q01DX010 (sc), vehicle: steriod suspending solution): 109 % of control | T/C (dose: 500.0 mg/kg/injection, schedule: Q01DX010 (sc), vehicle: steriod suspending solution): 100 % of control

NC(Cc1ccc(N(CCCl)CCCl)cc1)C(=O)O (stereo not given)
T/C (dose: 1.0 mg/kg/injection, schedule: Q01DX010 (ip), vehicle: other): 160 % of control | T/C (dose: 2.0 mg/kg/injection, schedule: Q01DX010 (ip), vehicle: other): 165 % of control | T/C (dose: 4.0 mg/kg/injection, schedule: Q01DX010 (ip), vehicle: other): 215 % of control | T/C [8]: 160 % of control | T/C [5]: 186 % of control | T/C [6]: 105 % of control

Nc1nc(N)c2nc(CNc3ccc(C(=O)NC(CCC(=O)O)C(=O)O)cc3)cnc2n1 (stereo not given)
T/C (dose: 0.03 mg/kg/injection, schedule: Q01DX010 (ip), vehicle: other): 90 % of control and 111 % of control | T/C (dose: 0.05 mg/kg/injection, schedule: Q01DX010 (ip), vehicle: other): 100 % of control | T/C (dose: 0.1 mg/kg/injection, schedule: Q01DX010 (ip), vehicle: other): 100 % of control | T/C (dose: 0.2 mg/kg/injection, schedule: Q01DX010 (ip), vehicle: other): 110 % of control and 111 % of control

CC(CCC(C)OS(C)(=O)=O)OS(C)(=O)=O (stereo not given)
T/C (dose: 4.0 mg/kg/injection, schedule: Q01DX010 (ip), vehicle: saline): 95 % of control | T/C (dose: 8.0 mg/kg/injection, schedule: Q01DX010 (ip), vehicle: saline): 87 % of control and 95 % of control | T/C (dose: 16.0 mg/kg/injection, schedule: Q01DX010 (ip), vehicle: saline): 95 % of control and 100 % of control

C1CN1c1nc(N2CC2)nc(N2CC2)n1
T/C (dose: 0.13 mg/kg/injection, schedule: Q01DX010 (ip), vehicle: saline): 90 % of control and 91 % of control | T/C [9]: 108 % of control and 110 % of control | T/C [10]: 90 % of control

Nc1ncnc2c1ccn2C1OC(CO)C(O)C1O (stereo not given)
T/C [9]: 100 % of control | T/C [11]: 100 % of control | T/C [10]: 118 % of control | T/C (dose: 2.0 mg/kg/injection, schedule: Q01DX010 (ip), vehicle: saline): 100 % of control

C[C@@H]1C[C@@H]([C@H](O)CC2CC(=O)NC(=O)C2)C(=O)[C@@H](C)C1
T/C [8]: 93 % of control and 94 % of control | T/C [5]: 88 % of control and 100 % of control | T/C [6]: 100 % of control | T/C [7]: 111 % of control

COS(C)(=O)=O
T/C [3]: 90 % of control

Clc1ncnc2nc[nH]c12
T/C (dose: 7.5 mg/kg/injection, schedule: Q01DX010 (ip), vehicle: saline): 93 % of control | T/C (dose: 15.0 mg/kg/injection, schedule: Q01DX010 (ip), vehicle: saline): 93 % of control | T/C (dose: 30.0 mg/kg/injection, schedule: Q01DX010 (ip), vehicle: saline): 93 % of control | T/C (dose: 60.0 mg/kg/injection, schedule: Q01DX010 (ip), vehicle: saline): 100 % of control

Nc1nc(=S)c2[nH]cnc2[nH]1
T/C (dose: 1.25 mg/kg/injection, schedule: Q01DX010 (ip), vehicle: other): 88 % of control and 118 % of control | T/C (dose: 2.5 mg/kg/injection, schedule: Q01DX010 (ip), vehicle: other): 111 % of control and 112 % of control | T/C (dose: 5.0 mg/kg/injection, schedule: Q01DX010 (ip), vehicle: other): 111 % of control

CSc1ncnc2nc[nH]c12
T/C [12]: 91 % of control and 100 % of control | T/C [13]: 91 % of control and 96 % of control | T/C [3]: 90 % of control

O=C1C(NC(=O)C2CCCCC2)=C(N2CC2)C(=O)C(NC(=O)C2CCCCC2)=C1N1CC1
T/C [2]: 90 % of control and 100 % of control | T/C [3]: 90 % of control and 100 % of control | T/C [4]: 90 % of control and 100 % of control | T/C [1]: 100 % of control and 110 % of control

CS(=O)(=O)OCCCl
T/C (dose: 18.8 mg/kg/injection, schedule: Q01DX010 (ip), vehicle: saline): 94 % of control | T/C (dose: 75.0 mg/kg/injection, schedule: Q01DX010 (ip), vehicle: saline): 90 % of control and 110 % of control | T/C (dose: 150.0 mg/kg/injection, schedule: Q01DX010 (ip), vehicle: saline): 118 % of control and 121 % of control

NC(Cc1c[nH]c2ccc(N(CCCl)CCCl)cc12)C(=O)O (stereo not given)
T/C [11]: 104 % of control

CC1CCOS(=O)O1 (stereo not given)
T/C [5]: 91 % of control and 95 % of control | T/C [6]: 90 % of control | T/C [7]: 95 % of control | T/C (dose: 80.0 mg/kg/injection, schedule: Q01DX010 (ip), vehicle: saline): 90 % of control

[I][Hg][CH2]C1COC([CH2][Hg][I])CO1 (stereo not given)
T/C (dose: 1.56 mg/kg/injection, schedule: Q01DX010 (ip), vehicle: saline): 86 % of control | T/C [12]: 95 % of control | T/C [13]: 100 % of control | T/C (dose: 12.5 mg/kg/injection, schedule: Q01DX010 (ip), vehicle: saline): 100 % of control | T/C [2]: 87 % of control

Cc1c2oc3c(C)ccc(C(=O)N[C@@H]4C(=O)N[C@H](C(C)C)C(=O)N5CCC[C@H]5C(=O)N(C)CC(=O)N(C)[C@@H](C(C)C)C(=O)O[C@H]4C)c3nc-2c(C(=O)N[C@@H]2C(=O)N[C@H](C(C)C)C(=O)N3CCC[C@H]3C(=O)N(C)CC(=O)N(C)[C@@H](C(C)C)C(=O)O[C@H]2C)c(N)c1=O (I: [aThr][dV]P[Sar][NMeV] / II: [aThr][dV]P[Sar][NMeV]; ester I:1-I:C, II:1-II:C; linker I:N-II:N via Actinocin(9to1))
T/C (dose: 25.0 micrograms/kg/injection, schedule: Q01DX010 (ip), vehicle: other): 160 % of control | T/C (dose: 50.0 micrograms/kg/injection, schedule: Q01DX010 (ip), vehicle: other): 190 % of control

CCCCNc1ncnc2c1cnn2C
T/C [14]: 105 % of control | T/C [15]: 110 % of control | T/C [16]: 95 % of control and 110 % of control

Oc1cc(CN(CCCl)CCCl)c(O)cc1CN(CCCl)CCCl
T/C (dose: 0.63 mg/kg/injection, schedule: Q01DX010 (ip), vehicle: saline): 104 % of control and 115 % of control | T/C [17]: 121 % of control | T/C [8]: 115 % of control

N#[N+]c1cnc([O-])[nH]c1=O
T/C [17]: 100 % of control | T/C (dose: 2.5 mg/kg/injection, schedule: Q01DX010 (ip), vehicle: saline): 116 % of control and 118 % of control

OCC1OC(n2cnc3c(Cl)ncnc32)C(O)C1O (stereo not given)
T/C [16]: 95 % of control and 100 % of control | T/C [18]: 90 % of control and 100 % of control | T/C (dose: 250.0 mg/kg/injection, schedule: Q01DX010 (ip), vehicle: saline): 90 % of control and 105 % of control | T/C (dose: 500.0 mg/kg/injection, schedule: Q01DX010 (ip), vehicle: saline): 90 % of control

CCCSc1ncnc2nc[nH]c12
T/C [14]: 104 % of control | T/C [15]: 90 % of control and 100 % of control | T/C [16]: 90 % of control and 104 % of control | T/C [18]: 90 % of control

O=c1[nH]cc(F)c(=O)[nH]1
T/C [8]: 108 % of control | T/C [6]: 159 % of control | T/C [7]: 91 % of control and 95 % of control
